Measurements as given in paper PMC10340464, “Identification of a Novel SSTR3 Full Agonist for the Treatment of Nonfunctioning Pituitary Adenomas” (Cancers, 2023).

Columns and labels:
δ (DOP) (h) = assay: Single-dose binding assay on δ opioid receptor; design: species or system human; settings: 10^−5 M
[1] = system: NFPAs of MENX (homozygous mutant) rats; assay: In vivo efficacy against endogenous NFPAs in MENX rats; design: species or system rat; settings: 12.5 mg/kg s.c. every 14 days, 56 days
Protocol: Tumor monitoring in rats was conducted using MRI at day 0 (pretreatment) and every 14 days post-treatment (days 14, 28, 42, 56). MRI was performed on a 7T preclinical scanner (Bruker BioSpin MRI GmbH, Ettlingen, Germany) using previously published procedures suitable to visualize the rat pituitary tumors. In the T2 weighted datasets, regions of interest (ROIs) were manually segmented around the adenomas in every slice where they appeared; tumor volumes were finally calculated from the data (area of particular ROIs and slice thickness) using an implemented algorithm in Osirix/Horos (Pixmeo SARL/Horos Project) as previously described.
RNA was extracted using RNeasy Mini Kit (Qiagen, Cluj-Napoca, Romania) following the manufacturer’s instructions. Total RNA concentration and purity was assessed using Nanodrop 2000 spectrophotometer (Thermo Scientific, Waltham, MA, USA). Total RNA was retrotranscribed using random hexamer primers and the cDNA First Strand Synthesis kit (Thermo Scientific). Details regarding the quantitative PCR (qPCR) procedure used to determine the absolute expression levels of the different somatostatin receptor genes (Sstr1-5) have been previously reported. Specific sets of primers for these genes have been previously validated and reported. To control for the amount of RNA and for the efficiency of the retrotranscription reaction, mRNA copy numbers of the different transcripts analyzed were adjusted by β-actin (ACTB) expression (used as housekeeping gene).
Ki67-positive tumor cells per 100,000 µm^2 were counted under the microscope in 3 independent areas for each tumor sample.
Linear mixed-effects (LME) models were applied for longitudinal analysis of tumor volume growth, with absolute tumor volume at day 0 used for scaling subsequent measurements of each individual, as previously reported. Relative volumes were transformed by natural logarithms for use as model outcomes in order to meet the normal distributional assumptions. Linear and quadratic growth predictors and interactions were considered for significance testing, performed by the F-test, with results presented as the mean ± standard error of the mean (SEM). Statistical significance between two series of data was determined by one-way ANOVA. A p value < 0.05 was considered statistically significant.

SSTR2-tGFP = assay: Receptor internalization in U2OS-transfected cells (SSTR2-tGFP); assay type: cell-based, human; settings: 3 h, high-content imaging, n = 3, method: percentage of activity relative to SST28 10^−6 M
Protocol: Compounds were tested at five concentrations (10^−5, 10^−6, 10^−7, 10^−8, 10^−9 M) in comparison to untreated cells.
SST agonists were added to U2OS recombinant cell lines in OptiMeM medium (Life technologies 51985-034, Monza, Italy) for 3 h (SSTR2, SSTR3) or 7 h (SSTR5) (n = 3). After formaldehyde fixation, nuclei were stained using DAPI (2 µg/mL), and the fluorescence was measured with BD Pathway 855 High-Content Bioimager from Becton Dickinson. The receptor internalization was calculated using AttoVision 1.6 Software. Approximately 500 cells per field were analyzed. […]
(Invitrogen, Carlsbad, CA). Stable transfectants were selected in the presence of 500 µg/ml G-418. […]
% picric acid in phosphate buﬀer (pH 6.9) for 30 minutes at room temperature (RT). […]
3.2. U2OS human cell lines transfected with human receptors (SSTR2-tGFP, SSTR3-tGFP,
Compounds were tested at ﬁve d iﬀerent concentrations (10-5, 10-6, 10-7, 10-8, 10^-9 M) in comparison to untreated cells.
(§1) U2OS recombinant cell lines were obtained from Innoprot (Derio, Spain). […] Nuclei were stained using DAPI (2 μg/ml) and the ﬂuorescence was measured using a BD Pathway 855 High-Content Bioimager from Becton Dickinson. The receptor internalization was calculated using AttoVision Software. […]
(§2) Agonist activity of test compounds was calculated relatively to positive control

HA-SSTR3 = assay: SSTR3 internalization in HEK293 cells, confocal microscopy; assay type: cell-based, human; settings: 1 µM agonist, 30 min 37 °C
Protocol: HEK293 cells obtained from DSMZ (Braunschweig, Germany) were transfected with plasmid encoding […] HA-tagged SSTR2, SSTR3 or SSTR5 receptors.
HEK293 cells stably expressing HA-tagged hSSTR cultures were preincubated with anti-HA antibody for 2 h at 4 °C and then exposed to 1 µM agonist for 30 min at 37 °C before fixing and further labeling with Alexa488-conjugated secondary antibody. After mounting with Roti®-MountFluorCare DAPI, cultures were examined using a Zeiss LSM510 META laser scanning confocal microscope (Zeiss, Jena, Germany) (see Supplementary Materials for details).
GH produced by primary cultures was tested by ELISA assay using Rat Growth Hormone Biotrak Enzyme immunoassay Mouse/Rat Growth ELISA (DSL-10-72100) or Rat/Mouse Growth Hormone ELISA (Millipore EZRMGH-45K) diluting supernatants 1:20, according to manufacturer’s instructions. […]
as §1, §2

κ (KOP) = assay: Single-dose binding assay on κ opioid receptor; settings: 10^−5 M
[2] = at high doses; ref manuscript in preparation; cited from earlier work
Source text: One important aspect relates to safety margins. Hyperglycemia is a common side effect of SSTR panagonists such as Pasireotide. […] What remains to be ascertained clinically is whether the higher agonistic activity on SSTR3 may allow us to define a dose at which full receptor engagement is observed in the absence of significant hyperglycemia.

NOP (ORL1) (h) = assay: Single-dose binding assay on NOP receptor; design: species or system human; settings: 10^−5 M

For `COc1cc2cccc(OC)c2cc1C[C@H]1NC(=O)[C@H](Cc2ccc(O)cc2)NC(=O)[C@@H]2C[C@@H](OC(=O)NCCN)CN2C(=O)[C@H](Cc2ccccc2)NC(=O)[C@H](Cc2ccc(OCc3ccccc3)cc2)NC(=O)[C@H](CCCCN)NC1=O` [ITF2984, Cyclo[Tyr(Bn)-Phe-Pro(4-OCONH(CH2)2NH2)-Tyr-3,8-diMeONal-Lys]], the “Percentage of inhibition of opioid receptor δ (DOP) (h) (agonist)” value (δ (DOP) (h)) was 79%, the “change in number of Ki67-positive cells versus placebo, female rats” value ([1]; female MENX rats) was −57% and the “tumor volume during treatment (MRI), female rats” value ([1]; female MENX rats, MRI every 14 days) was “only a slight increase in tumor volume”. For the same molecule, the “number of Ki67-positive cells per area, average, female rats” value ([1]; female MENX rats, placebo 312) was 134 cells per 100,000 mm^2, the “change in number of Ki67-positive cells versus placebo, male rats” value ([1]; male MENX rats) was −33.5% and the “number of Ki67-positive cells per area, average, male rats” value ([1]; male MENX rats, placebo 375) was 250 cells per 100,000 mm^2. For the same molecule, the “Receptor internalization in U2OS-transfected cells, SSTR2, at 10^−5 M” value (SSTR2-tGFP; 10^−5 M) was 37.3, the “Receptor internalization in U2OS-transfected cells, SSTR2, at 10^−6 M (value in brackets)” value (SSTR2-tGFP; 10^−6 M) was 35.9 and the “internalization of SSTR3 in transfected HEK293 cells” value (HA-SSTR3) was “strong internalization”. The “Percentage of inhibition of opioid receptor κ (KOP) (agonist)” value (κ (KOP)) was 97%, the “glycemia in clinical studies” value [2] was “increased glycemia” and the “Percentage of inhibition of opioid receptor NOP (ORL1) (h) (agonist)” value (NOP (ORL1) (h)) was 61%.
